Measured values taken from paper PMC4138103 (PLoS ONE, 2014).

Test system: Sprague-Dawley rats
Assay: Sperm analyses, cauda epididymis
Type: in vivo, Rattus norvegicus
Details: males
Method: Frozen right cauda epididymides were homogenized for 2 min using Ultra Turrax homogenizer (model T25 basic, IKA-WERKE GmbH, Staufen, Germany) in 20 ml 0.9% saline containing 0.05% Triton X-100 and 0.01% thiomersal. Homogenates were diluted to about 1×10^6 sperms/ml, and counts from 4 hemocytometer chambers were counted and averaged.

SMILES: Clc1cc(Cl)c(-c2cc(Cl)c(Cl)c(Cl)c2Cl)cc1Cl [PCB 180, 2,2′,3′,4,4′,5,5′-heptachlorobiphenyl]
- Cauda epididymal sperm density (1700 mg/kg bw vs control): not affected
- Sperm density (total dose 1700 mg/kg bw, cauda epididymis, group mean): 691 106/g tissue
- Sperm count (total dose 1700 mg/kg bw, group mean): 94.0 106/cauda epididymis
